Assay results published in ChEMBL document CHEMBL2303647, “Data associated with the publication PLoS ONE, 8(3), e57888, (2013) PMID: 23505445. Compounds: GSK PKIS; Assays: NIH NCATS”.

How the values were obtained:
[1] = biological target: T1, Coelenterazine h 2-monooxygenase (Renilla reniformis, UniProt P27652)
T1 sequence (P27652 whole entry): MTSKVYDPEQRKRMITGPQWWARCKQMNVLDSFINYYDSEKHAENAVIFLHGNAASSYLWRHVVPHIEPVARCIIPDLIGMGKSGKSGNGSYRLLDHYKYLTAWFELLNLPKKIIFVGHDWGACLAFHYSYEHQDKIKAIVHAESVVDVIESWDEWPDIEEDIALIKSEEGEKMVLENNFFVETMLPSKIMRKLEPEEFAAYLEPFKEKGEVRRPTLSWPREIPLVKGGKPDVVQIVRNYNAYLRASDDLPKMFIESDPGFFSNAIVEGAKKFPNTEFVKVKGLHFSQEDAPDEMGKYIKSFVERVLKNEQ
Description: GSK_PKIS: Inhibition of Sea Pansy Luciferase (Data from PubChem: AID 652015) [NIH NCATS]

[2] = biological target: Luciferin 4-monooxygenase (Photinus pyralis, UniProt P08659)
Luciferin 4-monooxygenase, sequence (P08659 whole entry): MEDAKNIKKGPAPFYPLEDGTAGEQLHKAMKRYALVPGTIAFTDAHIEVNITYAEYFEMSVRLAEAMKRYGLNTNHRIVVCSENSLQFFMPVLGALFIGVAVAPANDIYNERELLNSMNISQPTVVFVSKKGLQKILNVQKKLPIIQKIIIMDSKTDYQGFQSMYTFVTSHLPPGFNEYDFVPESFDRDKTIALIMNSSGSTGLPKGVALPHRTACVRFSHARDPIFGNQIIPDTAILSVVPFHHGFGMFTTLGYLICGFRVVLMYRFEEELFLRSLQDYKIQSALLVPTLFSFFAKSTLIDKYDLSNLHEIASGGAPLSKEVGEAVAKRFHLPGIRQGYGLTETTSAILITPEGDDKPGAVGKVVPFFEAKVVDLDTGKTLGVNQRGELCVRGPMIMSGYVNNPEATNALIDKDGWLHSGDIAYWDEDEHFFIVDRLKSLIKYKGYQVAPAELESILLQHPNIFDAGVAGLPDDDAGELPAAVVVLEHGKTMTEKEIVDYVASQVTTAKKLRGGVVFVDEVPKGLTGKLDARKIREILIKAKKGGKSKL
Description: GSK_PKIS: Inhibition of Firefly Luciferase (Data from PubChem: AID 652016) [NIH NCATS]

SMILES	AC50 [1]	AC50 [2]	AC50 ([1]; read-out: AC50) [µM]	AC50 ([2]; read-out: AC50) [µM]
Cl.O=C(Nc1ccc(Oc2ccc3[nH]c(NC(=O)c4ccccc4)nc3c2)cc1)Nc1cc(C(F)(F)F)ccc1F [GW709042A]	Phenotype: Inactive; Curve_Description: None	Phenotype: Inactive; Curve_Description: None		
c1ccc(-c2n[nH]cc2-c2ccnc(-c3ccc(OCCn4ccnc4)cc3)c2)nc1 [GW711782X]	Phenotype: Inactive; Curve_Description: None	Phenotype: Inactive; Curve_Description: None		
Cc1nnc(-c2cccc(-c3ccc(C(=O)NCC4CC4)cc3)c2)o1 [GW734508X]		Phenotype: Inactive; Curve_Description: None	36.6	
Cc1ccc(NC(=O)c2ccoc2)cc1-c1ccc(C(=O)NCC2CC2)cc1 [GW743024X]	Phenotype: Inactive; Curve_Description: None			41.1
Cl.NC(=O)c1cccc(Nc2nccc(Nc3cccc(F)c3)n2)c1 [GW759710A]	Phenotype: Inactive; Curve_Description: None			0.73
COc1ccc(-c2oc3ncnc(N)c3c2-c2ccc(NC(=O)Nc3cc(C(F)(F)F)ccc3F)cc2)cc1.Cl [GW768505A]	Phenotype: Inactive; Curve_Description: None	Phenotype: Inactive; Curve_Description: None		
Cc1ccc(NC(=O)c2ccnc(N3CCCC3)c2)cc1-c1ccc(C(=O)NCC2CC2)cc1 [GW769076X]		Phenotype: Inactive; Curve_Description: None	29.1	
Cc1nn(C)c2cc(N(C)c3ccnc(Nc4cccc(S(N)(=O)=O)c4)n3)ccc12.Cl [GW770220A]	Phenotype: Inactive; Curve_Description: None	Phenotype: Inactive; Curve_Description: None		
Cl.Nc1ncnc2occ(-c3ccc(NC(=O)Nc4cc(C(F)(F)F)ccc4F)cc3)c12 [GW770249A]	Phenotype: Inactive; Curve_Description: None	Phenotype: Inactive; Curve_Description: None		
Nc1ncnc2occ(-c3ccc(NC(=O)Nc4cc(C(F)(F)F)ccc4F)cc3)c12 [GW770249X]	Phenotype: Inactive; Curve_Description: None	Phenotype: Inactive; Curve_Description: None		
Cc1c2ccc(N(C)c3ccnc(Nc4cccc(S(N)(=O)=O)c4)n3)cc2nn1C [GW771127A]			18.3	13
CNC(=O)c1cccc(C#Cc2cncnc2Nc2ccc(OCc3cccc(F)c3)c(Cl)c2)c1 [GW772405X]	Phenotype: Inactive; Curve_Description: None	Phenotype: Inactive; Curve_Description: None		
N#Cc1cccc(Nc2nccc(-c3cnn4ncccc34)n2)c1 [GW778894X]	Phenotype: Inactive; Curve_Description: None	Phenotype: Inactive; Curve_Description: None		
CCN(CC)Cc1ccc(Nc2nccc(-c3cnn4ncccc34)n2)cc1 [GW780056X]		Phenotype: Inactive; Curve_Description: None	20.6	
Nc1nc(-c2cccc(Cl)c2)c(-c2ccc3ncccc3n2)s1 [GW780159X]	Phenotype: Inactive; Curve_Description: None	Phenotype: Inactive; Curve_Description: None		
Clc1ccc(CNc2nccc(-c3cnn4ncccc34)n2)cc1 [GW781673X]	Phenotype: Inactive; Curve_Description: None	Phenotype: Inactive; Curve_Description: None		
NC(=O)c1cccc(Nc2nccc(Nc3cccc4[nH]ncc34)n2)c1 [GW782612X]	Phenotype: Inactive; Curve_Description: None			13
Cc1ccc(C(=O)NC2CCCCC2)cc1-c1ccc(C(=O)NCC2CC2)cc1 [GW782907X]	Phenotype: Inactive; Curve_Description: None	Phenotype: Inactive; Curve_Description: None		
Cc1ccc(C(=O)NC2CCC2)cc1-c1ccc(C(=O)NCC2CC2)cc1 [GW782912X]	Phenotype: Inactive; Curve_Description: None			29.1

SMILES	AC50 [1]	AC50 [2]	AC50 ([1]; read-out: AC50) [µM]	AC50 ([2]; read-out: AC50) [µM]
COc1cccc(-n2ncc3c(N/N=C/c4ccc(C(=O)NCCN(C)C)cc4)ncnc32)c1.Cl [GW784307A]	Phenotype: Inactive; Curve_Description: None			16.3
CN1CCN(Cc2ccc(-c3cc4ncnc(Nc5ccc(OCc6cccc(F)c6)c(Cl)c5)c4s3)o2)CC1 [GW784684X]		Phenotype: Inactive; Curve_Description: None	20.6	
COc1cccc(-n2ncc3c(N/N=C/c4ccncc4)ncnc32)c1 [GW784752X]	Phenotype: Activator; Curve_Description: None			6.51
CCn1c(-c2nonc2N)nc2ccc(F)cc21 [GW785404X]	Phenotype: Inactive; Curve_Description: None	Phenotype: Inactive; Curve_Description: None		
Nc1nc(-c2ccc(F)cc2)c(-c2ccc3ncccc3n2)s1 [GW785804X]	Phenotype: Inactive; Curve_Description: None	Phenotype: Inactive; Curve_Description: None		
Cc1ccc(C(=O)NC(C)C)cc1-c1ccc(C(=O)NCC2CC2)cc1 [GW785974X]	Phenotype: Inactive; Curve_Description: None	Phenotype: Inactive; Curve_Description: None		
Cc1cccc(-c2n[nH]cc2-c2ccc3ncccc3n2)n1 [GW786460X]	Phenotype: Inactive; Curve_Description: None	Phenotype: Inactive; Curve_Description: None		
CCCNc1cccc(-n2ncc3c(N/N=C/c4ccncc4)ncnc32)c1 [GW794607X]	Phenotype: Inactive; Curve_Description: None	Phenotype: Inactive; Curve_Description: None		
CC(=O)Nc1cccc(C#Cc2cncnc2Nc2ccc(OCc3cccc(F)c3)c(Cl)c2)n1 [GW794726X]	Phenotype: Inactive; Curve_Description: None	Phenotype: Inactive; Curve_Description: None		
Nc1ncnc2occ(-c3ccc(NC(=O)Nc4cc(C(F)(F)F)cc(C(F)(F)F)c4)cc3)c12 [GW795486X]		Phenotype: Inactive; Curve_Description: None	16.3	
Nc1ncnc2occ(-c3ccc(NC(=O)Nc4cccc(C(F)(F)F)c4)cc3)c12 [GW795493X]	Phenotype: Inactive; Curve_Description: None	Phenotype: Inactive; Curve_Description: None		
Cc1ccc(NC(=O)CC2CC2)cc1-c1ccc(C(=O)NCC2CC2)cc1 [GW796920X]	Phenotype: Inactive; Curve_Description: None			18.3
CCC(=O)Nc1ccc(C)c(-c2ccc(C(=O)NCC3CC3)cc2)c1 [GW796921X]	Phenotype: Inactive; Curve_Description: None			18.3
Nc1nccc(C#Cc2cncnc2Nc2ccc(OCc3cccc(F)c3)c(Cl)c2)n1 [GW799251X]	Phenotype: Inactive; Curve_Description: None			14.6
COc1cc(Nc2nccc(-c3cnn4ncccc34)n2)cc(OC)c1 [GW801372X]	Phenotype: Inactive; Curve_Description: None	Phenotype: Inactive; Curve_Description: None		
COc1cccc(COc2cc(-n3cnc4ccccc43)sc2C(N)=O)c1 [GW804482X]		Phenotype: Inactive; Curve_Description: None	20.6	
CC(C)c1ccc(Nc2nccc(-c3cnn4ncccc34)n2)cc1 [GW805758X]	Phenotype: Inactive; Curve_Description: None			20.6
c1cnn2ncc(-c3ccnc(Nc4ccc5c(c4)OCCO5)n3)c2c1 [GW806290X]	Phenotype: Inactive; Curve_Description: None			2.91
CN(c1ccc(NC(=O)Nc2ccc(OC(F)(F)F)cc2)cc1)c1ccnc(Nc2cccc(S(N)(=O)=O)c2)n1 [GW806742X]	Phenotype: Inactive; Curve_Description: None			18.3
